Measurements published in article PMC9516332 (Frontiers in Oncology, 2022).
Read-outs that look alike come from different tables or passages of the source.

How the values were obtained:
[1] = biological target: panel of 255 wild-type kinases (Homo sapiens, UniProt O00311); test: Kinase panel profiling at 1 µmol/L (MSA or IMAP), percentage inhibition; assay type: biochemical; conditions: CDC7/ASK kinase assay; 1 µmol/L single concentration; read-out: %-inhibition CDC7/ASK
[2] = biological target: panel of 255 wild-type kinases (Homo sapiens, UniProt P42684); test: as above; assay type: biochemical; conditions: ARG kinase assay; 1 µmol/L single concentration; read-out: %-inhibition ARG
[3] = system: 134 cancer cell lines
[4] = system: AP-1060 (ETV6-NTRK3); test: Cell viability assay; conditions: read-out: IC50 in cell proliferation assay
[5] = system: 134 cancer cell lines; test: Cell viability assay (ATPlite, 72 hours), IC50 on cancer cell line panel

`C[C@H](Nc1ncnc2nc[nH]c12)c1cc2cccc(Cl)c2c(=O)n1-c1ccccc1` [duvelisib] was tested. Which inhibition at 1 µM [1] did it give?
Its inhibition at 1 µM is 0.486%.

What about the inhibition at 1 µM [2] of the same compound?
The inhibition at 1 µM was 0.877%.

And the IC50 [3]?
The IC50 was 4.24 µM.

And the IC50 [4]?
The IC50 was 11.3 µM.

What about the IC50 ([5]; HEC-6, read-out: IC50 in cell proliferation assay, HEC-6 cell line (EGFR p.A289V)) of the same compound?
The IC50 was over 31.6 µM.

And the IC50 ([5]; Homo sapiens, 769-P, read-out: IC50 in cell proliferation assay, cell line 769-P)?
The IC50 was 31.1 µM.

And the IC50 ([5]; Homo sapiens, 786-0, read-out: IC50 in cell proliferation assay, cell line 786-O)?
Its IC50 is 14.2 µM.

What about the IC50 ([5]; Homo sapiens, A 172, read-out: IC50 in cell proliferation assay, cell line A-172) of the same compound?
The IC50 was over 31.6 µM.

And the IC50 ([5]; Homo sapiens, A204, read-out: IC50 in cell proliferation assay, cell line A-204)?
Its IC50 is 1.19 µM.

What about the IC50 ([5]; Homo sapiens, A498, read-out: IC50 in cell proliferation assay, cell line A-498) of the same compound?
Its IC50 is 3.39 µM.

What about the IC50 ([5]; Homo sapiens, A549, read-out: IC50 in cell proliferation assay, cell line A-549) of the same compound?
Its IC50 is 23.9 µM.

What about the IC50 ([5]; Homo sapiens, A704, read-out: IC50 in cell proliferation assay, cell line A-704) of the same compound?
Its IC50 is over 31.6 µM.

And the IC50 ([5]; Homo sapiens, A-375, read-out: IC50 in cell proliferation assay, cell line A-375 (BRAF p.V600E))?
The IC50 was 23.4 µM.

What about the IC50 ([5]; Homo sapiens, A-427, read-out: IC50 in cell proliferation assay, cell line A-427) of the same compound?
The IC50 was 14.9 µM.

What about the IC50 ([5]; Homo sapiens, ACHN, read-out: IC50 in cell proliferation assay, cell line ACHN) of the same compound?
The IC50 was 7.17 µM.

And the IC50 ([5]; Homo sapiens, AN3-CA, read-out: IC50 in cell proliferation assay, cell line AN3-CA (FGFR2 p.N549K))?
The IC50 was 4.2 µM.

And the IC50 ([5]; Homo sapiens, ASPC1, read-out: IC50 in cell proliferation assay, cell line AsPC-1)?
Its IC50 is over 31.6 µM.

And the IC50 ([5]; Homo sapiens, AU565, read-out: IC50 in cell proliferation assay, cell line AU565 (ERBB2 amplification))?
The IC50 was 7.67 µM.

And the IC50 ([5]; Homo sapiens, BT-20, read-out: IC50 in cell proliferation assay, cell line BT-20)?
Its IC50 is 30 µM.

What about the IC50 ([5]; Homo sapiens, BT-474, read-out: IC50 in cell proliferation assay, cell line BT-474 (ERBB2 amplification)) of the same compound?
The IC50 was 9.09 µM.

And the IC50 ([5]; Homo sapiens, BT-549, read-out: IC50 in cell proliferation assay, cell line BT-549)?
Its IC50 is 0.348 µM.

And the IC50 ([5]; Homo sapiens, BXPC-3, read-out: IC50 in cell proliferation assay, cell line BxPC-3)?
The IC50 was 16.6 µM.

And the IC50 ([5]; Homo sapiens, C-33-A, read-out: IC50 in cell proliferation assay, cell line C-33 A)?
Its IC50 is 9.87 µM.

What about the IC50 ([5]; Homo sapiens, CAL-27, read-out: IC50 in cell proliferation assay, cell line CAL-27) of the same compound?
The IC50 was 8.89 µM.

What about the IC50 ([5]; Homo sapiens, CCF-STTG1, read-out: IC50 in cell proliferation assay, cell line CCF-STTG1) of the same compound?
The IC50 was over 31.6 µM.

And the IC50 ([5]; Homo sapiens, CCRF-CEM, read-out: IC50 in cell proliferation assay, cell line CCRF-CEM)?
The IC50 was 0.916 µM.

What about the IC50 ([5]; Homo sapiens, COLO 205, read-out: IC50 in cell proliferation assay, cell line COLO 205 (BRAF p.V600E)) of the same compound?
Its IC50 is 20.5 µM.

And the IC50 ([5]; Homo sapiens, COLO-829, read-out: IC50 in cell proliferation assay, cell line COLO 829 (BRAF p.V600E))?
Its IC50 is over 31.6 µM.

What about the IC50 ([5]; Homo sapiens, DLD-1, read-out: IC50 in cell proliferation assay, cell line DLD-1) of the same compound?
The IC50 was 18.5 µM.

And the IC50 ([5]; Homo sapiens, DU-4475, read-out: IC50 in cell proliferation assay, cell line DU4475 (BRAF p.V600E))?
Its IC50 is over 31.6 µM.

What about the IC50 ([5]; Homo sapiens, Daoy, read-out: IC50 in cell proliferation assay, cell line Daoy) of the same compound?
The IC50 was 12.1 µM.

What about the IC50 ([5]; Homo sapiens, DoTc2-4510, read-out: IC50 in cell proliferation assay, cell line DoTc2 4510) of the same compound?
The IC50 was 8.98 µM.

What about the IC50 ([5]; Homo sapiens, EOL1, read-out: IC50 in cell proliferation assay, cell line EoL-1 (FIP1L1-PDGFRA)) of the same compound?
The IC50 was 0.033 µM.

And the IC50 ([5]; Homo sapiens, FaDu, read-out: IC50 in cell proliferation assay, cell line FaDu)?
The IC50 was 18.7 µM.

And the IC50 ([5]; Homo sapiens, G-361, read-out: IC50 in cell proliferation assay, cell line G-361 (BRAF p.V600E))?
The IC50 was 22.1 µM.

And the IC50 ([5]; Homo sapiens, HCC827, read-out: IC50 in cell proliferation assay, cell line HCC827 (EGFR exon19del))?
Its IC50 is 2.18 µM.

And the IC50 ([5]; Homo sapiens, HCC4006, read-out: IC50 in cell proliferation assay, cell line HCC4006 (EGFR exon19del))?
Its IC50 is 26 µM.

What about the IC50 ([5]; Homo sapiens, HCT-15, read-out: IC50 in cell proliferation assay, cell line HCT 15) of the same compound?
Its IC50 is over 31.6 µM.

What about the IC50 ([5]; Homo sapiens, HCT-116, read-out: IC50 in cell proliferation assay, cell line HCT 116) of the same compound?
Its IC50 is 27.6 µM.

And the IC50 ([5]; Homo sapiens, HEC-1, read-out: IC50 in cell proliferation assay, HEC-1 cell line)?
Its IC50 is 11.2 µM.

What about the IC50 ([5]; Homo sapiens, HEC-1B, read-out: IC50 in cell proliferation assay, HEC-1-B cell line (EGFR p.A864V)) of the same compound?
The IC50 was 4.51 µM.

And the IC50 ([5]; Homo sapiens, HL-60, read-out: IC50 in cell proliferation assay, HL-60 cell line)?
Its IC50 is 4.97 µM.

And the IC50 ([5]; Homo sapiens, HT, read-out: IC50 in cell proliferation assay, HT cell line)?
The IC50 was 4.63 µM.

And the IC50 ([5]; Homo sapiens, HT-1080, read-out: IC50 in cell proliferation assay, HT-1080 cell line)?
Its IC50 is 3.97 µM.

And the IC50 ([5]; Homo sapiens, Hs746T, read-out: IC50 in cell proliferation assay, Hs 746.T cell line (MET exon14skip + amplification))?
Its IC50 is 4.43 µM.

What about the IC50 ([5]; Homo sapiens, Hs-578T, read-out: IC50 in cell proliferation assay, Hs 578T cell line) of the same compound?
The IC50 was 2.62 µM.

What about the IC50 ([5]; Homo sapiens, HuTu80, read-out: IC50 in cell proliferation assay, HuTu 80 cell line) of the same compound?
Its IC50 is 15 µM.

And the IC50 ([5]; Homo sapiens, J82, read-out: IC50 in cell proliferation assay, J82 cell line)?
Its IC50 is 23.8 µM.

And the IC50 ([5]; Homo sapiens, Jurkat E6.1, read-out: IC50 in cell proliferation assay, Jurkat E6.1 cell line)?
Its IC50 is 6.94 µM.

What about the IC50 ([5]; Homo sapiens, K562, read-out: IC50 in cell proliferation assay, K-562 cell line) of the same compound?
Its IC50 is 12.3 µM.

What about the IC50 ([5]; Homo sapiens, KATO III, read-out: IC50 in cell proliferation assay, KATO III cell line (FGFR2 amplification)) of the same compound?
Its IC50 is 23.1 µM.

And the IC50 ([5]; Homo sapiens, KG-1, read-out: IC50 in cell proliferation assay, KG-1 cell line (FGFR1OP2-FGFR1))?
Its IC50 is over 31.6 µM.

What about the IC50 ([5]; Homo sapiens, KLE, read-out: IC50 in cell proliferation assay, KLE cell line) of the same compound?
The IC50 was 4.37 µM.

And the IC50 ([5]; Homo sapiens, KMS-11, read-out: IC50 in cell proliferation assay, KMS-11 cell line (FGFR3 p.Y373C))?
The IC50 was 11.4 µM.

And the IC50 ([5]; Homo sapiens, KU812, read-out: IC50 in cell proliferation assay, Ku812 cell line)?
Its IC50 is 12.8 µM.

And the IC50 ([5]; Homo sapiens, Kasumi 1, read-out: IC50 in cell proliferation assay, Kasumi-1 cell line (KIT p.N822K))?
The IC50 was 5.79 µM.

And the IC50 ([5]; Homo sapiens, LC-2-ad, read-out: IC50 in cell proliferation assay, LC-2/ad cell line (CCDC6-RET))?
The IC50 was 0.095 µM.

What about the IC50 ([5]; Homo sapiens, LNCaP-Clone-FGC, read-out: IC50 in cell proliferation assay, LNCaP clone FGC cell line) of the same compound?
Its IC50 is 0.119 µM.

What about the IC50 ([5]; Homo sapiens, LS174T, read-out: IC50 in cell proliferation assay, LS174T cell line) of the same compound?
The IC50 was 31.2 µM.

What about the IC50 ([5]; Homo sapiens, LS-411N, read-out: IC50 in cell proliferation assay, LS411N cell line (BRAF p.V600E)) of the same compound?
The IC50 was 26.3 µM.

And the IC50 ([5]; Homo sapiens, LoVo, read-out: IC50 in cell proliferation assay, LoVo cell line)?
Its IC50 is 9.26 µM.

And the IC50 ([5]; Homo sapiens, MCF7, read-out: IC50 in cell proliferation assay, MCF-7 cell line)?
Its IC50 is 11.8 µM.

What about the IC50 ([5]; Homo sapiens, MDA-MB-231, read-out: IC50 in cell proliferation assay, MDA-MB-231 cell line) of the same compound?
The IC50 was over 31.6 µM.

What about the IC50 ([5]; Homo sapiens, MDA-MB-453, read-out: IC50 in cell proliferation assay, MDA-MB-453 cell line) of the same compound?
The IC50 was over 31.6 µM.

What about the IC50 ([5]; Homo sapiens, MDA-MB-468, read-out: IC50 in cell proliferation assay, MDA-MB-468 cell line) of the same compound?
Its IC50 is 1.3 µM.

What about the IC50 ([5]; Homo sapiens, MG-63, read-out: IC50 in cell proliferation assay, MG-63 cell line) of the same compound?
The IC50 was 7.8 µM.

And the IC50 ([5]; Homo sapiens, MIA PaCa-2, read-out: IC50 in cell proliferation assay, MIA PaCa-2 cell line)?
Its IC50 is 12.9 µM.

And the IC50 ([5]; Homo sapiens, MKN-45, read-out: IC50 in cell proliferation assay, MKN45 cell line (MET amplification))?
Its IC50 is 2.36 µM.
